Laboratory results as given in US20100035793A1, “Modulators” (priority 2005, published 2010).
Non-standard residues stand in square brackets, D forms with d. No end group written: not given here. pY = N[C@@H](Cc1ccc(OP(=O)(O)O)cc1)C(=O)O

Tests used:
Stat3 [1] = target: T1, Stat3 (Homo sapiens, UniProt P40763); details: cited from earlier work
JAK2 = JAK2 (Homo sapiens, UniProt O60674); details: cited from earlier work
Stat3 [2] = target: T1, Stat3; details: cited from earlier work; remark: listed apart in the source
breast carcinoma cells = details: cited from earlier work
Stat3 [3] = target: T1, Stat3; details: cited from earlier work; for levels of DNA binding activities of STAT 3: peptide present in nuclear extracts
STAT 5 = details: peptide present in nuclear extracts; cited from earlier work
Stat3 [4] = test: Western blot of Stat3 expression in packaging cells transfected with Stat3 siRNA vectors; set-up: species or system human; details: 293T-based amphotropic packaging cell line, FIG. 5A left panel
Description: Retroviral Stat3 siRNA. Four different targets designed against STAT 3 were selected and cloned into BglII and XhoI into pSUPER.retro.puro from OligoEngine, and sequenced (STAT 3 Genbank Accession number NM_139276). The four targets are named STAT 3 siRNA 1 (nt. 461-480) SEQ ID 1, STAT 3 siRNA 2 (nt. 1264-1283) SEQ ID 2, STAT 3 siRNA 3 (nt. 364-383) GATTGGGCATATGCGGCCA, and STAT 3 siRNA 4 (nt. 1662-1681) SEQ ID 3. The corresponding primers with a 9-nt short hairpin in the middle (bold) are
(§1) These vectors containing Stat3 siRNA targets and empty vector were transfected into 293T-based Phoenix-Ampho packaging cell line for 7-9 h, and the amphotropic retroviruses were harvested 48 h later, pelleted to remove nonadherent cells and cellular debris, and filtered through a […] cellulose acetate membrane. The keloid fibroblasts were infected overnight in the presence of 4 μg/ml polybrene, and replaced with fresh 10% FBS/DMEM the following day. Cells were assayed for Western blot 48 h after infection, or for XTT cell proliferation, or for migration assay which was performed by replating the cells into 8 μM Transwell membrane and fixed 24 h later as described above.
(§2) Western blot. Cells were either harvested in radioimmune precipitation assay (RIPA) buffer (150 mM NaCl, 50 mM Tris-HCl, pH 7.2, 1% deoxycholic acid, 1% Triton X-100, 0.25 mM EDTA, pH 8.0) containing protease inhibitor cocktail (Roche Diagnostics Corporation, Indianapolis, Ind., USA), or lysis buffer containing 150 mM NaCl, 10 mM Tris-HCl, pH 7.4, 0.5% Triton-X-100, 0.5% NP-40, 1 mM EDTA, 0.2 mM sodium vanadate, supplemented with protease inhibitor tablet. Total cell lysates were collected after centrifugation for 10 min at 4° C., and resolved in 7.5% or 10% polyacrylamide gel electrophoresis, and transferred to PVDF membranes (Bio-Rad Laboratories, Hercules, Calif., USA). The membranes were blotted with anti-phosphoTyr705 Stat3 antibody (1:1000 dilution; Cell Signaling, Beverly, Mass., USA) overnight at 4° C. overnight in PBS containing 1% BSA and 0.1% Tween 20, washed with PBS containing 0.2% Tween 20, and incubated with secondary anti-rabbit IgG antibody (1:2000 dilution; Sigma, Saint Louis, Mo., USA) for 1 h at room temperature, washed with PBS containing 0.2% Tween 20, followed by enhanced chemiluminescence (Amersham Biosciences, Buckinghamshire, UK) or Lumi-Light (Roche Diagnostics Corporation, Indianapolis, USA), and autoradiography. The membranes were stripped with Restore Western Blotting Stripping Buffer (Pierce, Rockford, Ill., USA) according to manufacturer's instructions and reblotted with anti-phosphoSer727 Stat3 (1:1000 dilution; Cell Signaling, Beverly, Mass., USA) and secondary anti-mouse IgG antibody (1:2000 dilution; Sigma, Saint Louis, Mo., USA). […]

Stat3 [5] = test: Western blot of Stat3 expression in KF48 infected with retroviral Stat3 siRNAs; format: cell-based, human; details: KF48 infected with retrovirus expressing Stat3 siRNAs
Experimental: as §1
Western blot. Cells were either harvested in radioimmune precipitation assay (RIPA) buffer (150 mM NaCl, 50 mM Tris-HCl, pH 7.2, 1% deoxycholic acid, 1% Triton X-100, 0.25 mM EDTA, pH 8.0) containing protease inhibitor cocktail (Roche Diagnostics Corporation, Indianapolis, Ind., USA), or lysis buffer containing 150 mM NaCl, 10 mM Tris-HCl, pH 7.4, 0.5% Triton-X-100, 0.5% NP-40, 1 mM EDTA, 0.2 mM sodium vanadate, supplemented with protease inhibitor tablet. Total cell lysates were collected after centrifugation for 10 min at 4° C., and resolved in 7.5% or 10% polyacrylamide gel electrophoresis, and transferred to PVDF membranes (Bio-Rad Laboratories, Hercules, Calif., USA). The membranes were blotted with anti-phosphoTyr705 Stat3 antibody (1:1000 dilution; Cell Signaling, Beverly, Mass., USA) overnight at 4° C. overnight in PBS containing 1% BSA and 0.1% Tween 20, washed with PBS containing 0.2% Tween 20, and incubated with secondary anti-rabbit IgG antibody (1:2000 dilution; Sigma, Saint Louis, Mo., USA) for 1 h at room temperature, washed with PBS containing 0.2% Tween 20, followed by enhanced chemiluminescence (Amersham Biosciences, Buckinghamshire, UK) or Lumi-Light (Roche Diagnostics Corporation, Indianapolis, USA), and autoradiography. The membranes were stripped with Restore Western Blotting Stripping Buffer (Pierce, Rockford, Ill., USA) according to manufacturer's instructions and reblotted with anti-phosphoSer727 Stat3 (1:1000 dilution; Cell Signaling, Beverly, Mass., USA) and secondary anti-mouse IgG antibody (1:2000 dilution; Sigma, Saint Louis, Mo., USA). The stripping and reblotting procedure was repeated with monoclonal anti-Stat3 (1:1000 dilution; BD Transduction Laboratories), polyclonal anti-actin (1:1000 dilution; Sigma) and monoclonal anti-collagen antibody (1:1000 dilution; MONOSAN).

collagen = test: Western blot of collagen production in KF48 keloid fibroblasts; format: cell-based, human; details: KF48 infected with retroviral Stat3 siRNAs, FIG. 5A right panel
Experimental: as §1
Inhibition of Stat3 was also evaluated by incubating KF48 for 30 min with various doses of Cucurbitacin I, an inhibitor of Jak2/Stat3 activation (32), or with DMSO alone as a control, followed by further incubation in normal growth media for 48 h. […] Cucurbitacin I was acquired from Galchimia (A Corufia, Spain).
as §2, with “autoradiography.” for “autoradiography. The membranes were stripped with Restore Western Blotting Stripping Buffer (Pierce, Rockford, Ill., USA) according to manufacturer's instructions and reblotted with anti-phosphoSer727 Stat3 (1:1000 dilution; Cell Signaling, Beverly, Mass., USA) and secondary anti-mouse IgG antibody (1:2000 dilution; Sigma, Saint Louis, Mo., USA).”
Methods of assessing polypeptides regulated by STAT Collagen may be regulated by STAT 3 activation. monoclonal anti-human collagen I, II, III Was purchased from MONOSAN (Uden, Netherlands). […] These were detected via western blot as described above.

KF48 keloid fibroblasts [6] = test: Scratch-wound migration assay; format: cell-based, human; details: KF48 infected with Stat3 siRNA retrovirus, 15 h after wounding, vs vector
Experimental: Cell migration in keloidflbroblasts is inhibited by Stat3 siRNA and Cucurbitacin I. To examine the role of Stat3 in cell migration of skin fibroblasts, KF48 cells were infected with retrovirus expressing Stat3 siRNAs and scratch assays were performed as previously described. […] Three non-overlapping fields were acquired, and graphically illustrated as mean±SD in FIG. 8B. Transmembrane cell migration assays were also performed in triplicates as described earlier, and quantified as mean±SD (FIG. 8C). […] The right panels in FIG. 8B and 8C depict immunoblots of Stat3 and actin to show the efficiencies of inhibition by the Stat3 siRNAs.
The role of Stat3 in cell migration was also examined using Cucurbitacin I in the scratch assay. KF48 cells were first incubated with 10 μg/ml mitomycin C for 2 h, before treating for 30 min with DMSO or 1 μM Cucurbitacin I. The scratch-wound was performed, followed by further incubation in normal growth media. Pictures were taken at 0 h, 22 h and 48 h after wounding.
Migration assay. For migration assay using the scratch method, cells were grown to confluence and incubated with 10 μg/ml mitomycin C for 2 h, before a scratch wound was introduced using a yellow pipette tip. Cells were further incubated in normal growth media and pictures were taken at 0 h, 14 h, 15 h, 22 h, or 48 h after wounding. Three non-overlapping fields were captured by Axiovert 135 microscope from Zeiss and cells migrated into the wound site were counted and presented as mean±SD.

KF48 keloid fibroblasts [7] = test: Transwell migration assay; format: cell-based, human; details: KF48 infected with Stat3 siRNA retrovirus, vs vector
Experimental: as §1
Migration assay was also performed using the Transwell 8.0 μM pore size polycarbonate membrane (Corning Inc.). 1×10^4 cells/well were seeded at the top of the insert in 0.2 ml serum-free DMEM, with 0.5 ml 10% FBS/DMEM in the bottom chamber as chemoattractant. 24 h later, cells were washed once in cold PBS, before fixing with 4% paraformaldehyde in PBS for 15 min at room temperature. Cells were permeabilized with 0.1% Triton X-100 in PBS for 3 min at room temperature, and stained with haematoxylin for 10 min at room temperature, followed by destain with water thrice. Cells from the top of the inserts were removed by cotton swabs, and inserts were left to dry. The inserts were mounted onto slides and three non-overlapping fields of cells migrated to the bottom of the inserts were captured using Leica DM4000 B microscope.

KF48 keloid fibroblasts [8] = test: XTT proliferation assay; format: cell-based, human
Description: Inhibition of Stat3 decreases cell proliferation. Enhanced fibroblast proliferation is a characteristic of keloid tissue. In agreement with this, keloid fibroblasts grown in normal culture conditions proliferated faster than normal fibroblasts, as observed in KF48 and KF107 compared to NF2 and NF4 (FIG. 6A). To investigate whether Stat3 is involved in the enhanced keloid fibroblast proliferation, KF48 was infected with retrovirus expressing Stat3 siRNAs, and cell proliferation was examined. […] XTT proliferation assay. Cells seeded at 3,000 cells/well in 96-well plates and grown in normal growth conditions, or infected with retroviral Stat3 siRNAs, were assayed for proliferation using the XrT proliferation kit (Roche) according to the manufacturer's instructions. The readings were taken at 450 nm and referenced against 690 nm, 2 h after the addition of the XrT reagent. Each sample was performed at quadruplicates in two to three independent experiments. Data are presented as mean±SD
Cell proliferation was also investigated by treating KF48 cells with various doses of Cucurbitacin I or with DMSO control, before incubating in normal growth media and examined daily over 4 days. Cucurbitacin I concentration as low as I μM was able to inhibit cell proliferation of KF48 compared to DMSO and untreated control (0 μM), whereas Cucurbitacin I exposure at 5 μM and above seemed to cause cell death (FIG. 6C).

JAK2, sequence (O60674 whole entry, species assumed): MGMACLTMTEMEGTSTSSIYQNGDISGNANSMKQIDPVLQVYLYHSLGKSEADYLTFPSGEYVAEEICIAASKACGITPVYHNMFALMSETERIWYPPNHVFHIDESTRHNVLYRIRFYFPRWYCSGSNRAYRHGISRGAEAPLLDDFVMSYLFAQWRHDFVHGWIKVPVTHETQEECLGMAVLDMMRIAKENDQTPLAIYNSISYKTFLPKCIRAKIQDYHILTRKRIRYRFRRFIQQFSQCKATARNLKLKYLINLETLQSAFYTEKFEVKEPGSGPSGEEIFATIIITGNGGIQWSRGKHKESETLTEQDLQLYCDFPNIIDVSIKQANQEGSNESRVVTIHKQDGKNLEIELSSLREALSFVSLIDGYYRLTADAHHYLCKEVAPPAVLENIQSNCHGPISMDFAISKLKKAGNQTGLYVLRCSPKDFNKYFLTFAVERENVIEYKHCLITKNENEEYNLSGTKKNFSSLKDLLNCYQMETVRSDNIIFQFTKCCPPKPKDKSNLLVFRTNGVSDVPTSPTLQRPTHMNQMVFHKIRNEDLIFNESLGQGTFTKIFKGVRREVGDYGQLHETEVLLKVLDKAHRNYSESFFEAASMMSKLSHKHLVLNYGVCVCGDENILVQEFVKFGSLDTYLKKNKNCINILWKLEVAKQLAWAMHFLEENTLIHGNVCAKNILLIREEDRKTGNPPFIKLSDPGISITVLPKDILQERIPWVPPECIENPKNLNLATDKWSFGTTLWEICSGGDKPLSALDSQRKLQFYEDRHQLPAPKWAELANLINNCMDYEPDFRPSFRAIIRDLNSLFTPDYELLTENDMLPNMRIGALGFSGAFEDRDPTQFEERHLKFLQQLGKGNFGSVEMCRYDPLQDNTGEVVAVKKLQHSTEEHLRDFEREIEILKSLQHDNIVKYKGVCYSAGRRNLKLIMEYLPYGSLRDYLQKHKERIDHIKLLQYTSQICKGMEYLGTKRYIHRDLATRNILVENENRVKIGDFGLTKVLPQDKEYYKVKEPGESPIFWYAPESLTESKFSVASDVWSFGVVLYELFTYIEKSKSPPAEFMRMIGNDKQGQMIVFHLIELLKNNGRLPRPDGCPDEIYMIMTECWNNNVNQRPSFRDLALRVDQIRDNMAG
T1 sequence (P40763 whole entry, species assumed): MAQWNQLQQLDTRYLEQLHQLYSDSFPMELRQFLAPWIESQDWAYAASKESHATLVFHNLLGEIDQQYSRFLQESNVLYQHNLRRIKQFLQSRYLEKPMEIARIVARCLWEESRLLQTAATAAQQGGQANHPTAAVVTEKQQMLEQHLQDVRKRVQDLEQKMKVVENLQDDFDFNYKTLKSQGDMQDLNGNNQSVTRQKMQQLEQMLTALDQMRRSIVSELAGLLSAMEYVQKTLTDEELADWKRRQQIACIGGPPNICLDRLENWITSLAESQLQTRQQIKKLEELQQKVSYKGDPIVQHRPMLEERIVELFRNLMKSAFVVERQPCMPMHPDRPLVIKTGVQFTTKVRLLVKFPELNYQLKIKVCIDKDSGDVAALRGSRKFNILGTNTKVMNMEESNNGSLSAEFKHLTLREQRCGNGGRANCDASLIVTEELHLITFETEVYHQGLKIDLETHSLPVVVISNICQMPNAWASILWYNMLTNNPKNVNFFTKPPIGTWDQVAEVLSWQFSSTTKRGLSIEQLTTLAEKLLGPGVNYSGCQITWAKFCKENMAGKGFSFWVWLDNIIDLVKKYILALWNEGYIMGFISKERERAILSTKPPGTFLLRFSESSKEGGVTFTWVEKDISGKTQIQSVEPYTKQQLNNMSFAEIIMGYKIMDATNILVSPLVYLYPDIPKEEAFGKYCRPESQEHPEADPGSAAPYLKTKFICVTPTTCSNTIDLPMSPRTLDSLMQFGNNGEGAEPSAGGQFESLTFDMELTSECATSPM

Compound	inhibition of activation of STAT 3 (Stat3 [1])	inhibition of activation of JAK2 (JAK2)	inhibitory effect on Stat3 expression (Stat3 [4])	inhibition of Stat3 expression (Stat3 [5])	rate of cell migration, scratch assay (KF48 keloid fibroblasts [6])	cell migration, Transwell (KF48 keloid fibroblasts [7])	also measured
CC(=O)OC(C)(C)/C=C/C(=O)[C@](C)(O)[C@H]1[C@H](O)C[C@@]2(C)[C@@H]3CC=C4[C@@H](C[C@H](O)C(=O)C4(C)C)[C@]3(CO)C(=O)C[C@]12C [Cucurbitacin A]	not	inhibits					
CC(=O)OC(C)(C)/C=C/C(=O)[C@](C)(O)[C@H]1[C@H](O)C[C@@]2(C)[C@@H]3CC=C4[C@H](C[C@H](O)C(=O)C4(C)C)[C@]3(C)C(=O)C[C@]12C [Cucurbitacin B]	inhibit	inhibit					
CC(=O)OC(C)(C)/C=C/C(=O)[C@](C)(O)[C@H]1[C@H](O)C[C@@]2(C)[C@@H]3CC=C4[C@@H](C=C(O)C(=O)C4(C)C)[C@]3(C)C(=O)C[C@]12C [Cucurbitacin E]	inhibit	inhibit					
C[C@@H]1CC(=O)c2c(ccc3c2C(=O)c2cccc(O)c2C3=O)C1 [STA-21]							Stat3-dependent luciferase activity (Stat3 [2]): inhibits; Stat3 DNA binding activity (Stat3 [2]): inhibits; Stat3 dimerization (Stat3 [2]): inhibits; effect on cells in which constitutive Stat3 signaling is absent (breast carcinoma cells): minimal effect; survival of breast carcinoma cells with constitutive Stat3 signaling (breast carcinoma cells): reduces the survival
Cucurbitacin Q	inhibits	not					
PY*L: tripeptide derivative of PY*LKTK, Y* represents phosphotyrosine (Pro-[pY]-Leu; UniProt P40763 704-706, looked up, fragment)							STAT 3 biochemical activity and biological function (Stat3 [3]): inhibit
PY*LKTK: Stat3 SH2 domain-binding phosphopeptide, Y* represents phosphotyrosine (P[pY]LKTK; UniProt P40763 704-709, looked up, fragment)							STAT 3 biochemical activity and biological function (Stat3 [3]): inhibit; levels of DNA binding activities of STAT 3 (Stat3 [3]): significant reduction; levels of DNA binding activities of STAT 5 (STAT 5): no effect
PYLKTK: non-phosphorylated control peptide of PY*LKTK (UniProt P40763 704-709, looked up, fragment)							levels of DNA binding activities of STAT 3 (Stat3 [3]): not
Stat3 siRNA 1: siRNA target nt. 461-480 of STAT 3 (NM—139276), AGTCGAATGTTCTCTATCA, hairpin primers SEQ ID 4 and 5, retroviral vector			inhibitory effect	inhibit Stat3 expression	impede the rate of cell migration	hinder the cell migration	inhibition of collagen production (collagen): inhibition of collagen production
Stat3 siRNA 2: siRNA target nt. 1264-1283 of STAT 3, GGCGTCCAGTTCACTACTA, hairpin primers SEQ ID 6 and 7, retroviral vector			inhibitory effect	inhibit Stat3 expression	impede the rate of cell migration	hinder the cell migration	inhibition of collagen production (collagen): inhibition of collagen production
Stat3 siRNA 3: siRNA target nt. 364-383 of STAT 3, GATTGGGCATATGCGGCCA, retroviral vector; does not inhibit Stat3			not	does not inhibit Stat3	did not	did not	
Stat3 siRNA 4: siRNA target nt. 1662-1681 of STAT 3, GCGTCCATCCTGTGGTACA, hairpin primers SEQ ID 8 and 9, retroviral vector			inhibitory effect	inhibit Stat3 expression	impede the rate of cell migration	hinder the cell migration	inhibition of collagen production (collagen): inhibition of collagen production; relative effectiveness among the siRNAs tested (KF48 keloid fibroblasts [8]; keloid fibroblast collagen production, proliferation and migration): most effective; cell proliferation of KF48 (KF48 keloid fibroblasts [8]; retroviral Stat3 siRNA, vs noninfected, vector and Stat3 siRNA 3, FIG. 6B): decreased cell proliferation
